The text below walks through data of patent publication US8999956B2, “N-[(het)arylalkyl)] pyrazole(thio)carboxamides and their heterosubstituted analogues” (Bayer Intellectual Property GmbH, priority 2010, dated 2015).

SMILES strings stand for the structures. Values joined by “and” are separate entries in the source; they are usually repeats but may differ in a detail not shown here. Identical values can stand only once. Like-named read-outs stand apart in the source and are kept apart here.

For one series, the system named is Alternaria solani. As to the kind of experiment: In vivo preventive test on Alternaria solani (tomato). The settings on record: 500 ppm of active ingredient, evaluated 7 days after inoculation. An outline of the steps:
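Young tomato plants sprayed preventively with compound in DMF/alkylarylpolyglycolether emulsion diluted in water to the stated rate. Inoculation with aqueous Alternaria solani spore suspension one day after treatment.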

The test system of another series is Uromyces appendiculatus. The experiment in a line: In vivo preventive test on Uromyces appendiculatus (beans). The settings on record: 100 ppm of active ingredient, evaluated 10 days after inoculation. An outline of the steps: (§1)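 Young plants sprayed preventively at the stated application rate with compound dissolved in acetone/N,N-dimethylacetamide plus alkylaryl polyglycol ether emulsifier and diluted with water to the desired concentration.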

Another series deals with Leptosphaeria nodorum. As to the kind of experiment: In vivo preventive test on Leptosphaeria nodorum (wheat). The settings on record: 500 ppm of active ingredient, evaluated 7-9 days after inoculation. An outline of the steps: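 Compound formulated in N,N-dimethylacetamide with alkylaryl polyglycol ether emulsifier and diluted with water. Young wheat plants were sprayed at the stated application rate, then inoculated one day later with an aqueous spore suspension of L. nodorum.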

The next series deals with Venturia inaequalis. As to the kind of experiment: In vivo preventive test on Venturia inaequalis (apple scab). The conditions noted are these: 100 ppm of active ingredient, evaluated 10 days after inoculation. The essentials: as §1
The subject of another series is Puccinia triticina. As to the kind of experiment: In vivo preventive test on Puccinia triticina (wheat). The settings on record: Table K, 500 ppm of active ingredient, evaluated 8 days after inoculation.
The test system of another series is Aspergillus parasiticus. The experiment in a line: microbe, parasite or virus in culture. Format: cell-based.
The test system of another series is Botrytis cinerea. The experiment in a line: In vivo preventive test on Botrytis cinerea (beans). The settings on record: Table L, 500 ppm of active ingredient, lesion size 2 days after inoculation. An outline of the steps:
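Young bean plants sprayed preventively with compound in acetone/dimethylacetamide/emulsifier diluted in water; after drying, each leaf inoculated with 2 agar pieces bearing Botrytis cinerea. Kept dark at 20° C, 100% humidity; lesion size scored at 2 days as % efficacy (0% = untreated, 100% = no disease).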

The subject of a further series is Septoria tritici. The experiment in a line: In vivo preventive test on Septoria tritici (wheat). The settings on record: 500 ppm of active ingredient, evaluated 21 days after inoculation. The essentials:
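Compound formulated in N,N-dimethylacetamide with alkylaryl polyglycol ether emulsifier and diluted in water to the stated rate. Young wheat plants sprayed preventively; after the deposit dried, they were inoculated with a Septoria tritici spore suspension.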

The next series concerns Pyrenophora teres. The experiment in a line: In vivo preventive test on Pyrenophora teres (barley). The settings on record: 500 ppm of active ingredient, evaluated 7-9 days after inoculation. The essentials: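 Compound formulated in N,N-dimethylformamide with alkylaryl polyglycol ether emulsifier and diluted in water, then sprayed on young barley plants at the stated application rate. Plants inoculated one day later with aqueous Pyrenophora teres spore suspension, testing preventive protection.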

Series [1] concerns Blumeria graminis fsp. hordei. The experiment in a line: In vivo preventive test on Blumeria graminis (barley). The conditions noted are these: 500 ppm of active ingredient, evaluated 7 days after inoculation. The essentials:
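Active compound taken up in N,N-dimethylacetamide with alkylaryl polyglycol ether emulsifier, then diluted in water to the desired concentration. Young barley plants sprayed at the stated application rate; once the coating had dried, plants were dusted with Blumeria graminis f. sp. hordei spores.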

A further series deals with Sphaerotheca fuliginea. As to the kind of experiment: In vivo preventive test on Sphaerotheca fuliginea (cucumber). The conditions noted are these: 500 ppm of active ingredient, evaluated 7 days after inoculation. An outline of the steps: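 Young cucumber plants sprayed with compound (in DMF with alkylarylpolyglycolether emulsifier, diluted in water) at the stated application rate. Inoculated one day later with aqueous Sphaerotheca fuliginea spore suspension. Plants then held in greenhouse at approximately 23° C and approximately 70% relative humidity.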

Series [2] concerns aflatoxines produced by Aspergillus parasiticus. As to the kind of experiment: microbe, parasite or virus in culture. In kind it is cell-based.
For a further series, the system named is Fusarium graminearum. The settings on record: in vivo.
The subject of a further series is Pyricularia oryzae. The settings on record: in vivo.
Series [3] deals with Fusarium nivale (var. majus). As to the kind of experiment: In vivo preventive test on Fusarium nivale (wheat). The settings on record: 500 ppm of active ingredient, evaluated 5 days after inoculation. The essentials:
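Young wheat plants sprayed preventively with compound formulated in N,N-dimethylacetamide plus alkylaryl polyglycol ether emulsifier, diluted in water to the stated application rate. After drying, plants were lightly injured by sandblast, then sprayed with a Fusarium nivale (var. majus) conidia suspension.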

The subject of a further series is Cochliobolus miyabeanus. As to the kind of experiment: In vivo protective test on Cochliobolus miyabeanus (rice). The settings on record: Table M, 250 ppm of active ingredient, evaluated 4 days after inoculation.
For the next series, the system named is Phakopsora pachyrhizi. As to the kind of experiment: In vivo protective test on Phakopsora pachyrhizi (soybeans). The conditions noted are these: Table N, 250 ppm of active ingredient, evaluated 11 days after inoculation.
Series [4] is described as follows: log P by HPLC on reversed-phase column (EEC Directive 79/831 Annex V.A8). In kind it is physicochemical. Here is the method:
In table 1, the log P values were determined in accordance with EEC Directive 79/831 Annex V.A8 by HPLC (High Performance Liquid Chromatography) on a reversed-phase column (C18), using the method described below: Temperature: 40° C.; […]

Take `Cn1nc(C(F)F)c(C(=O)N(C2CC2)C2CCCCC2Cc2ccccc2)c1F` (mixture of isomers) [Example 243]: the Efficacy stood at 100% in the series on Alternaria solani; 98% with Uromyces appendiculatus; 100% in the series on Leptosphaeria nodorum; 100% in the series with Venturia inaequalis; 100% in the series on Puccinia triticina; 90% in the series on Botrytis cinerea. In addition, the Efficacy (in the series with Septoria tritici; with Pyrenophora teres; in [1]; in the series on Sphaerotheca fuliginea; in the series on Fusarium graminearum) was 100% in each case. In addition, the “% Inhibition of fungal growth at 50 μM” value in the series with Aspergillus parasiticus turned out to be 100%. Further, the “% Inhibition of Aflatoxin at 50 μM” value in [2] is given as 100%.
Turning to `CC(C)CC(C)C1CCCC1NC(=O)c1c(C(F)F)nn(C)c1Cl` (mixture of isomers) [Example 311], the Efficacy with Pyricularia oryzae is listed as 96%; in [3], 100%; in the series on Alternaria solani, 100%; with Cochliobolus miyabeanus, 97%; in the series on Uromyces appendiculatus, 100%; in the series on Phakopsora pachyrhizi, 98%. In addition, the Efficacy in the series on Venturia inaequalis turned out to be 100%; in the series with Puccinia triticina, 100%; in the series with Septoria tritici, 93%; in the series on Pyrenophora teres, 100%; in series [1] it was 100%; with Sphaerotheca fuliginea, 90%. In addition, the “% Inhibition of fungal growth at 50 μM” value with Aspergillus parasiticus (50 µM) is listed as 97%. For the same compound, the “% Inhibition of Aflatoxin at 50 μM” value in [2] (50 µM) turned out to be 100%.
In the case of `CC(CCc1ccc(Cl)c(Cl)c1)N(C(=O)c1c(C(F)F)nn(C)c1F)C1CC1` (racemic) [Example 129], the Efficacy in the series with Alternaria solani is 100%; in the series on Uromyces appendiculatus it was 99%; with Leptosphaeria nodorum, 100%; in the series with Venturia inaequalis, 100%; in the series on Puccinia triticina, 70%; with Septoria tritici, 80%. Also, the Efficacy (in the series with Pyrenophora teres; in series [1]; in the series on Sphaerotheca fuliginea; in the series with Fusarium graminearum) was 100% in each case. The “% Inhibition of fungal growth at 50 μM” value in the series with Aspergillus parasiticus is on record as 100%. The logP in series [4] was found to be 4.44. The “% Inhibition of Aflatoxin at 50 μM” value in [2] came out at 100%.
Consider `CC(C)CC(C)C1CCCCC1NC(=O)c1c(C(F)F)nn(C)c1F` (single isomer, unassigned) [Example 338], for which the Efficacy was 97% with Pyricularia oryzae; 100% in series [3]; 100% with Alternaria solani; 96% in the series on Cochliobolus miyabeanus; 98% in the series with Phakopsora pachyrhizi; 100% in the series with Venturia inaequalis. The Efficacy (in the series on Puccinia triticina; in the series with Septoria tritici; in the series with Pyrenophora teres; in series [1]; in the series on Sphaerotheca fuliginea) was 100% in each case. In the series on Aspergillus parasiticus, the “% Inhibition of fungal growth at 50 μM” value was 100%. Moreover, the logP in [4] amounted to 4.73 isomer B. In series [2], the “% Inhibition of Aflatoxin at 50 μM” value is 100%.
Turning to `Cn1nc(C(F)F)c(C(=O)NC2CCCCC2CCC(C)(C)C)c1F` (single isomer, unassigned) [Example 357], the Efficacy in the series with Pyricularia oryzae was found to be 97%; in series [3], 100%; with Alternaria solani it was 100%; with Cochliobolus miyabeanus, 93%; with Uromyces appendiculatus, 100%; with Phakopsora pachyrhizi it was 85%. Further, the Efficacy (in the series with Venturia inaequalis; with Puccinia triticina; in the series with Septoria tritici; with Pyrenophora teres; in series [1]; in the series on Sphaerotheca fuliginea) was 100% in each case. In series [4], this compound gave a logP of 4.50 isomer A.
`Cn1nc(C(F)F)c(C(=O)N(CCOc2c(Cl)cccc2Cl)C2CC2)c1Cl` [Example 161]: the Efficacy came out at 90% in the series on Leptosphaeria nodorum; 90% in the series on Puccinia triticina; 80% in the series with Septoria tritici; 100% with Pyrenophora teres; 100% in series [1]; 86% in the series with Fusarium graminearum. Also, the logP in series [4] came out at 3.69.
In the case of `Cn1nc(C(F)F)c(C(=O)N(CCOc2c(Cl)cccc2Cl)C2CC2)c1F` [Example 162], the Efficacy is given as 90% in the series with Leptosphaeria nodorum; 80% with Puccinia triticina; 90% with Septoria tritici; 95% with Pyrenophora teres; 100% in series [1]; 95% with Sphaerotheca fuliginea. In the series with Fusarium graminearum, this compound came in with an Efficacy of 100%. In the series with Aspergillus parasiticus (50 µM), the “% Inhibition of fungal growth at 50 μM” value amounted to 100%. For the same compound, in series [4], the logP is listed as 3.55. Besides, the “% Inhibition of Aflatoxin at 50 μM” value in series [2] (50 µM) is 100%.
As to `CC(COc1ccc(Cl)cc1Cl)N(C(=O)c1c(C(F)F)nn(C)c1F)C1CC1` (centres unmarked) [Example 187], the Efficacy came out at 95% in the series with Uromyces appendiculatus; 90% with Leptosphaeria nodorum; 100% in the series on Venturia inaequalis; 95% with Puccinia triticina; 100% in the series with Septoria tritici; 100% with Pyrenophora teres. Also, the Efficacy (in series [1]; in the series with Sphaerotheca fuliginea; with Fusarium graminearum) was 100% in each case. Moreover, the “% Inhibition of fungal growth at 50 μM” value in the series with Aspergillus parasiticus was 100%. This compound registered a logP in series [4] of 4.16. In addition, in series [2], the “% Inhibition of Aflatoxin at 50 μM” value came out at 100%.
Take `Cn1nc(C(F)F)c(C(=O)N(CC#Cc2ccccc2)C2CC2)c1F` [Example 271]: the Efficacy in the series on Leptosphaeria nodorum came to 90%; in the series with Puccinia triticina it was 89%; with Septoria tritici, 88%; in the series with Pyrenophora teres it was 95%; in [1] it was 78%; with Sphaerotheca fuliginea, 98%. Also, the Efficacy with Fusarium graminearum amounted to 93%. The compound also displayed a logP in series [4] of 3.19.
Take `Cn1nc(C(F)F)c(C(=O)N(C[Si](C)(C)Cc2ccccc2)C2CC2)c1F` [Example 288]: the Efficacy in the series with Alternaria solani turned out to be 100%; in the series with Uromyces appendiculatus, 100%; in the series on Leptosphaeria nodorum, 100%; in the series with Venturia inaequalis, 100%; with Puccinia triticina it was 95%; with Botrytis cinerea it was 100%. Also, the Efficacy is 90% in the series on Septoria tritici; 100% with Pyrenophora teres; 100% in series [1]; 94% in the series with Sphaerotheca fuliginea; 100% in the series on Fusarium graminearum. Moreover, in the series with Aspergillus parasiticus, the “% Inhibition of fungal growth at 50 μM” value is recorded as 99%. The logP in series [4] was 4.03. The “% Inhibition of Aflatoxin at 50 μM” value in series [2] is reported as 100%.
On to `CC(C)CC(C)C1CCCCC1NC(=O)c1c(C(F)F)nn(C)c1F` (centres unmarked) [Example 339], for which the Efficacy with Pyricularia oryzae was 98%; in series [3] it was 100%; with Alternaria solani, 100%; in the series with Cochliobolus miyabeanus it was 92%; with Uromyces appendiculatus, 100%; in the series on Leptosphaeria nodorum it was 70% and 94%. Moreover, the Efficacy in the series with Phakopsora pachyrhizi was 98%; in the series with Venturia inaequalis it was 100%; with Puccinia triticina it was 100%; in the series on Septoria tritici it was 100%; in the series with Pyrenophora teres, 94%; in [1] it was 100%. The compound also registered an Efficacy in the series with Sphaerotheca fuliginea of 100%. Besides, the “% Inhibition of fungal growth at 50 μM” value with Aspergillus parasiticus amounted to 100%. The same compound had a logP in [4] of 4.54. For the same compound, the “% Inhibition of Aflatoxin at 50 μM” value in series [2] came out at 100%.
